Series [1] has as its system P. berghei. Set-up: method as in PMID 24689770. Particulars: mice, 50 mg/kg po, groups of three mice; mean (SD); cited from earlier work.
Details of series [2]: method as in PMID 24689770. As to conditions: cited from earlier work.
The subject of series [3] is P. falciparum 3D7. The series is described as follows: FACS assay for parasite growth. Particulars: read-out: Parasite growth inhibition EC50; FACS; mean (SD), n = 3. A general note: Flow cytometry measures light scatter and fluorescence of single cells or particles in a stream.
The target in series [4] is PvCDPK1 (Plasmodium vivax, UniProt A5KBU9). The series is described as follows: Rh-ParM ADP sensor IC50 assay, PvCDPK1. Particulars: read-out: IC50 PvCDPK1; Rh-ParM, absence of MTIP; mean (SD), n = 3.
For series [5] the following is noted: P. berghei mouse model; cited from earlier work.
For series [6], the target named is PbCDPK1 (Plasmodium berghei, UniProt A0A509AHB6). The series is described as follows: Rh-ParM ADP sensor IC50 assay, PbCDPK1. Particulars: read-out: IC50 PbCDPK1; Rh-ParM, absence of MTIP; mean (SD), n = 3.
Series [7] has as its target PfCDPK1 (Plasmodium falciparum, UniProt P62344). The series is described as follows: Thermal shift assay. Format: binding. Further details: 50 nM full-length recombinant PfCDPK1 and 8 μM MTIP in assay buffer 1; GST (from vector pGEX6P1) (N, cleaved yes); made in house; host or cells: Escherichia coli BL21 Gold. As to conditions: 10 μM compound, relative to DMSO controls. The method, then:
Purified recombinant PfCDPK1 was diluted to 1 μM in 10 mM HEPES buffer (pH 7.5) containing 150 mM NaCl, 1 mM Ca^2+, and 1/1,000 SYPRO orange dye (Invitrogen). Test compounds were prediluted to 400 μM in 40% (vol/vol) DMSO in water, and 1 μl of diluted compound was added to 39 μl of enzyme/dye mix in white 96-well quantitative PCR plates (Thermo Scientific) to give a final compound concentration of 10 μM. Reference thermal melting temperatures (Tms) were obtained in parallel by the addition of 1 μl of 40% (vol/vol) DMSO to 39 μl of diluted PfCDPK1. The plates were sealed with transparent adhesive covers (Bio-Rad) and subjected to a temperature gradient from […] at a rate of 1 K/min using a quantitative PCR machine (MX3005P; Stratagene). Fluorescence data were acquired at 1-min intervals using the 6-carboxyfluorescein (FAM)/5-carboxy-X-rhodamine (ROX) filter set (λex = 492 nm; λem = 610 nm), and the raw data were exported to Excel (Microsoft) for analysis. Data were processed to identify the fluorescence maxima and minima, and the midpoints of melting curves were determined by fitting to the Boltzmann equation using XL-fit software (IDBS). Results were expressed as ΔTm values relative to DMSO controls where ΔTm = Tm in the presence of inhibitor − Tm of the DMSO controls.

Details of series [8]: method as in PMID 24689770. Particulars: cited from earlier work. The source holds these as a separate data set.
Series [9] concerns the target PfCDPK1 T145Q (Plasmodium falciparum, UniProt P62344, T145Q). The series is described as follows: Rh-ParM ADP sensor assay, gatekeeper mutant T145Q. Particulars: Ki, absence of MTIP.

These results are taken from article PMC4187893, “Biochemical and Antiparasitic Properties of Inhibitors of the Plasmodium falciparum Calcium-Dependent Protein Kinase PfCDPK1” (Antimicrobial Agents and Chemotherapy, 2014).

Sequence of PvCDPK1 (A5KBU9 entry or part of it): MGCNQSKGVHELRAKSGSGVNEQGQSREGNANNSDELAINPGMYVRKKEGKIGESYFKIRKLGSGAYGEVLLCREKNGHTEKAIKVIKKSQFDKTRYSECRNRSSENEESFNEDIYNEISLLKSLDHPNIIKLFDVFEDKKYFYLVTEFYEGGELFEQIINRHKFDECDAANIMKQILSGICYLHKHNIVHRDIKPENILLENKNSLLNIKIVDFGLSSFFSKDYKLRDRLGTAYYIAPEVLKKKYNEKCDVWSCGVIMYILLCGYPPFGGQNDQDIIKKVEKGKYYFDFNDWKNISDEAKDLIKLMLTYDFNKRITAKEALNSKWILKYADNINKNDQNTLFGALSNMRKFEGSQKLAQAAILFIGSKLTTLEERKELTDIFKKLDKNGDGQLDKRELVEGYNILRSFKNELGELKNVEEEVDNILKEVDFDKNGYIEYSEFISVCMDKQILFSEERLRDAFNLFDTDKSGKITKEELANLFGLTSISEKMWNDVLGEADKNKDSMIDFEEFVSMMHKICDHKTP
Sequence of PfCDPK1 (P62344 whole entry): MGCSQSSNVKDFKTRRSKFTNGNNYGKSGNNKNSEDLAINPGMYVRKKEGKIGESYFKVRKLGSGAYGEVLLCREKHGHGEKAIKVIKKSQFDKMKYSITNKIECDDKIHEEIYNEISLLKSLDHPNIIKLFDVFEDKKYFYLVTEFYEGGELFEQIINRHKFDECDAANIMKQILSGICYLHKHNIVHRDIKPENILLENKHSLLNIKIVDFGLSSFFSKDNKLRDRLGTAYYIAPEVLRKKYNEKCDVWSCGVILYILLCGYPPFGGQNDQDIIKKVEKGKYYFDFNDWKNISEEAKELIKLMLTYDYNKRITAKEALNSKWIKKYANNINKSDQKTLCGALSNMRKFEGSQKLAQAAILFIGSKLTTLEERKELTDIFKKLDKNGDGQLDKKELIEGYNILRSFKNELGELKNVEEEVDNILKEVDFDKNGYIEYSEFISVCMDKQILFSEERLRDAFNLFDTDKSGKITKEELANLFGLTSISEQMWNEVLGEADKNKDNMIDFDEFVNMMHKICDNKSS
Sequence of PbCDPK1 (A0A509AHB6 whole entry): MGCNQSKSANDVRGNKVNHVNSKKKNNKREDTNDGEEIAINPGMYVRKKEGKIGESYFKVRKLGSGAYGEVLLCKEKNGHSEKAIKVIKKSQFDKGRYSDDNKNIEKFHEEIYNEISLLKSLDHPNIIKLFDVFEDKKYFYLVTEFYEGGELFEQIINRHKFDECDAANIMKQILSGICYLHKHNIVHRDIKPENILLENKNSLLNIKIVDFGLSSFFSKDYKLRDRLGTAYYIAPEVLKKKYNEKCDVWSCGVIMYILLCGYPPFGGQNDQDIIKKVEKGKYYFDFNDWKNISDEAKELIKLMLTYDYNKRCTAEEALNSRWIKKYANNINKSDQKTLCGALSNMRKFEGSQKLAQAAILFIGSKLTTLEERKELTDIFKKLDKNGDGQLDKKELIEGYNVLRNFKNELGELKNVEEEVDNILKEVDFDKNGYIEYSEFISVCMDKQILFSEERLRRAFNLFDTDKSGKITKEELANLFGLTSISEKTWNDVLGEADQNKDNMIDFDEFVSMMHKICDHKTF
Sequence of PfCDPK1 T145Q (P62344 whole entry T145Q): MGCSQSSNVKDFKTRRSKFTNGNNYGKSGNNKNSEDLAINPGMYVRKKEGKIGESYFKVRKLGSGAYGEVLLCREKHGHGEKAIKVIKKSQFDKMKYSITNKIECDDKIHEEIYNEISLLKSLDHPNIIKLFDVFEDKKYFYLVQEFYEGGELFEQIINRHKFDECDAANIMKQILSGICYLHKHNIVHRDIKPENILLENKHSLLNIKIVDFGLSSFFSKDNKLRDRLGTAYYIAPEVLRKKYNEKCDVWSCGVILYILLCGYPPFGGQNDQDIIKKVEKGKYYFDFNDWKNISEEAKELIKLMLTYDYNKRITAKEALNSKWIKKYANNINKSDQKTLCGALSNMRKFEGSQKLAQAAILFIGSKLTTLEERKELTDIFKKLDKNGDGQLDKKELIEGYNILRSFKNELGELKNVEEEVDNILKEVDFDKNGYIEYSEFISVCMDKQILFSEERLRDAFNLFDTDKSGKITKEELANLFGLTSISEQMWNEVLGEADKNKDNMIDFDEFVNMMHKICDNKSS

As to `CC(C)CCNc1ccc(-c2cnc3ccc(NC4CCN(C)CC4)nn23)cn1` [Compound 1], the “% reduction in parasitemia in vivo (po)” value in series [1] was 46 (4) %. Also, the mlogD in series [2] is listed as 3.4. For the same compound, the EC50 (as a rule, the concentration giving half of the maximal effect) in series [3] was 439 nM. Also, the IC50 (usually the concentration that gives 50% inhibition) in series [4] was below 10 nM.
With `NC1CCC(Nc2ccc3ncc(-c4cnc(Nc5ncccc5F)nc4)n3n2)CC1` (centres unmarked) [Compound 2], the mlogD in series [2] is 0.2. Moreover, in series [5], the “plasma exposure” value is “poor plasma exposure”. The EC50 in series [3] is 13 nM.
For the compound `CN1CCC(Nc2ccc3ncc(-c4ccc(Nc5ncc(Cl)cc5F)cc4)n3n2)CC1` [Compound 6], the mlogD in series [2] is recorded as 3.7. Moreover, the IC50 in series [6] and in [4] was below 10 nM in each case. Further, the “ΔTm PfCDPK1” value in series [7] came out at 22 K.
For `Cc1ccc(F)c(Nc2ccc(-c3cnc4ccc(NC5CCC(N)CC5)nn34)cc2)n1` (centres unmarked) [Compound 7], the “PAMPA Papp” value in series [8] was 1.8 ×10⁻⁶ cm/s. Also, in series [2], the mlogD is recorded as 2.2. Moreover, the IC50 in series [6] and in series [4] was below 10 nM in each case. The “ΔTm PfCDPK1” value in series [7] was 23 K.
Take `CN[C@@H]1C[C@H]2O[C@@](C)([C@@H]1OC)n1c3ccccc3c3c4c(c5c6ccccc6n2c5c31)C(=O)NC4` [Staurosporine]: the “difference in potency between wild-type enzyme and T145Q” value in series [9] is on record as “no substantial differences”.
